For assay [1], the system named is intra-ocular pressure (IOP) of rabbits. The assay is described as follows: IB-MECA-induced ocular hypertension in rabbits. The format is in vivo, New Zealand white rabbits. The following applies: single drop, 1 μM. Here is the method: IB-MECA induces acute ocular hypertension by a different and well-defined mechanism. Namely, IB-MECA is a selective agonist of the A3-adenosine receptor, and rises aqueous humour inflow and IOP by activating Cl channels of the NPE cells (18, 19). […] FIG. 8A depicts the effects of DMe (0.1-1 mM) applied prior to the IB-MECA, and a similar result was obtained for DGlyN (not shown). FIG. 8B depicts effects of digoxigenin, DGlyN and DMe (1 mM) applied after the IB-MECA.
(§1) New Zealand white rabbits (3-3.5 kg) about 1 year old, of either sex, were housed individually in separate cages in animal room conditions on a reversed, 12-hour dark/light cycle. For the experiments the animals were transferred to rabbit restrainers in a quiet and calm atmosphere (FIG. 1). […] Animal care and treatment were subject to the approval of the institutional committee for animal experiments, Weizmann Institute IACUC permission (no 04270911-2).
(§2) IOP (mm Hg) of rabbits was measured using a calibrated Pneumatonometer (Model 30, Reichert technologies, FIG. 1). A local anesthetic Oxybuprocaine HCl (0.4%, 25 μl) was applied to each cornea about a minute before IOP measurements. Two baseline IOP readings were taken before topical administration of the CG (or PBS as control) and after half an hour (Zero time). […] At zero time one drop of 4AP (40 mg/ml, 30 μl) or IB-MECA (1 μM, 30 μl) was administered to both eyes of each rabbit IOP measurements were made at different times as indicated in each experiment. In the experiments for which the IOP was elevated for several hours, 4AP was added every […] or IB-MECA every 2 hours. […] In all cases the figures depict the average effect on IOP (i.e for four or six eyes) compared to control ±SEM. […] Significance of differences from the control was calculated by the unpaired Students t-test (p values), p values <0.05 were considered significant. Corneal thickness (μm) was measured using an ultrasonic pachymeter (Sonogage pachometer, Cleveland, USA), before and during the experiment with CG and 4AP treatments. The values represent averages of three independent measurements for each eye.

The target in assay [2] is T1, Na,K-ATPase α1β1 isoform complex (Homo sapiens, UniProt P05023). Put plainly: biochemical. The following applies: Ki, nM ± SEM α1β1, Table 6. The arrangement: made in house; host or cells: Pichia pastoris SMD1165. Here is the method: (§3) Methods for transformation, culture of P. pastoris clones, protein expression of Na,K-ATPase human isoforms (α1β1, α2β1, α3β1), membrane preparation, solubilization of membranes in DDM, and purification on BD-Talon beads have been described in detail (6-9, 11, 25). In initial experiments the three purified isoform complexes (0.3-0.5 mg/ml) were eluted from the BD-Talon beads in a solution containing Imidazole 170 mM, NaCl 100 mM; Tricine.HCl 20 mM pH 7.4; C12E8, 0.1 mg/ml; SOPS 0.07 mg/ml cholesterol 0.01 mg/ml, glycerol 25%. In later experiments the isoforms complexes were reconstituted with purified FXYD1 on the BD-Talon beads together as described in detail in (10, 11) prior to elution of α1β1FXYD1, α2β1FXYD1 and α3β1FXYD1 complexes. The proteins were stored at −80° C. Protein concentration was determined with BCA (B9643 Sigma).
(§4) Inhibition of Na,K-ATPase activity of the detergent-soluble α1β1, α2β1, and α3β1 complexes by CG's was determined as described (6) using either the αβ or αβFXYD1 complexes. […] The K0.5K was estimated by varying K concentration in a medium containing a fixed total K+choline chloride of 60 mM, and constant NaCl of 140 mM. Curves were fitted to the Hill function v=Vmax*[S]^n/([S]^n+K^n), where S is the K concentration, n is the Hill coefficient and K^n is K0.5K. For comparison of different curves the ratio v/Vmax for each curve was calculated and replotted. In experiments to assess inhibition of Na,K-ATPase activity by cardiac glycosides of the present invention, the percent inhibition VCG/V0 was calculated and Ki values were obtained by fitting the data to the function VCG/V0=Ki/([CG]+Ki)+ c. Inhibition was estimated in 3-8 separate experiments and average Ki values ±SEM were calculated. Significance of differences between Kiα1 and Kiα2 was calculated by the unpaired Student's t-test (p values). […] P values <0.05 were considered significant.

Assay [3] has as its system Na,K-ATPase α2β3 isoform complex. The assay is described as follows: biochemical. Further details: species or system human. The following applies: ratio of Ki, Table 6.
Description: (§5) Human β1, β2 and β3 were cloned into the pHIL-D2 expression vector containing the human α1 or α2. pHIL-D2 expression vectors containing porcine (p) α1, human (h) α1 or human α2 with Hisx10 tagged porcine β1 were previously generated (7, 9). Human β1 (Accession: P05026), human β2 (Accession: P14415) and human β3 (Accession: […]) cDNAs in pSD5 vector were a gift from K. Geering Univ. Lausanne Switzerland. The open reading frames and flanking regions of hβ1, hβ2 and hβ3 (in pSD5) were amplified separately by polymerase chain reaction (PCR) using synthetic primers containing BglII and SalI cleavage sites. Each one of the amplified fragments were digested with BglII and SalI and ligated to BglII and SalI treated plasmid pHIL-D2-(pα1/His10pβ1) to generate pHIL-D2 (pα1/His10hβ1or2or3). hβ1, hβ2 and hβ3 containing fragments were excised from pHIL-D2-(pα1/His10hβ1or2or3) and subcloned into pHIL-D2-(hα1/His10pβ1) or pHIL-D2-(hα2/His10pβ1) to produce pHIL-D2-(hα1/His10hβ1or2or3) and pHIL-D2-(hα2/His10hβ1or2or3). The newly created plasmids were analyzed for correct integration and correct sequence of the insert by restriction enzymatic digestions and sequencing. DNA of each construct was prepared in large quantities in E. coli XL-1 Blue for Pichia pastoris transformation.
as §4

Assay [4] concerns Na,K-ATPase α2β2 isoform complex. The assay is described as follows: biochemical. Further details: species or system human. The following applies: ratio of Ki, Table 6.
Description: as §5, §4

In assay [5] the target is T2, Na,K-ATPase α2β3 isoform complex (Homo sapiens, UniProt P50993).
T2 construct: made in house; host or cells: Pichia pastoris SMD1165
Put plainly: biochemical.
Description: as §5, §4

For assay [6], the target named is T3, Na,K-ATPase α2β2 isoform complex (Homo sapiens, UniProt P50993).
T3 construct: made in house; host or cells: Pichia pastoris SMD1165
The assay is described as follows: biochemical.
Description: as §5, §4

Assay [7] concerns the target T4, Na,K-ATPase α2β1 isoform complex (Homo sapiens, UniProt P50993). Put plainly: biochemical. The format is biochemical. The arrangement: made in house; host or cells: Pichia pastoris SMD1165. The following applies: Ki, nM ± SEM α2β1, Table 6. The protocol: as §3, §4
The subject of assay [8] is Na,K-ATPase α2β1 isoform complex. The assay is described as follows: biochemical. The following applies: for Selectivity ratio Ki α1/α2 ± S.E.: Kiα1β1/Kiα2β1; for Selectivity α1β1/α2/β1: ratio of Ki, Table 6. The assay is classed as biochemical, human. The protocol: as §3, §4
Assay [9] addresses T4, Na,K-ATPase α2β1 isoform complex. The assay is described as follows: biochemical. The assay is classed as biochemical. The following applies: Ki ± S.E. α2, Table 2; α2β1. Here is the method:
as §3, §4

The target in assay [10] is T1, Na,K-ATPase α1β1 isoform complex. The assay is described as follows: biochemical. The following applies: Ki ± S.E. α1, Table 2; α1β1. Here is the method:
as §3, §4

Assay [11] deals with intra-ocular pressure (IOP) of rabbits. Put plainly: 4-aminopyridine (4AP)-induced ocular hypertension in rabbits. The format is in vivo, New Zealand white rabbits. The following applies: applied topically prior to 4AP. The protocol: Intra-ocular pressure in rabbits was measured using of a “Reichert Model 30™ Pneumatonometer” after anesthetizing the cornea with local anesthetic.
Since the IOP reflects a balance of the inflow and outflow of aqueous humour, reduction of the increased 4AP-induced inflow of aqueous humour by cardiac glycosides should prevent the increase in IOP. Thus, the standard experimental design to test effects of cardiac glycosides involved topical application of the compounds (1 drop in each eye) 30 minutes prior to application of 4AP and measurement of IOP every 30 minutes over five hours. […] Each experiment was done three times, but the figures depict a representative experiment using a different rabbit for each concentration of the cardiac glycoside.
DGlyN or DMe (0.1 or 1 mM) were applied one hour after the first application of 4AP, which was added every two hours.
as §1, §2

Each structure is given as a SMILES string.

`CNC(=O)[C@H]1O[C@@H](n2cnc3c(NCc4cccc(I)c4)ncnc32)[C@H](O)[C@@H]1O` [IB-MECA, reference compound]: the “Effect on IOP” value in [1] is listed as “significant but transient increase in IOP”.

The Ki is a dissociation constant, usually derived from enzyme kinetics or from competition with a known ligand. As for `CCN1CCC(OC2C(O)CC(OC3C(O)CC(OC4CCC5(C)C(CCC6C5CC(O)C5(C)C(C7=CC(=O)OC7)CCC65O)C4)OC3C)OC2C)OC(C)C1` (stereo not drawn) [DEt], the Ki in [2] was 138 ± 12.6 nM; in assay [5], 0.0144 ± 0.00127 µM; in [6], 0.0164 ± 0.0016 µM; in assay [7] it was 23.2 ± 0.9 nM; in assay [9] it was 0.0185 ± 0.0049 µM; in [10] it was 0.053 ± 0.0034 µM. Further, the “Selectivity α1β1/α2β3” value in [3] came out at 9.5. For the same compound, the “Selectivity α1β1/α2/β2” value in [4] turned out to be 8.3. Also, the “Selectivity ratio Ki α1/α2 ± S.E.” value in assay [8] is given as 2.88 ± 0.78. Further, the “Selectivity α1β1/α2/β1” value in [8] is recorded as 5.9.

As to `CC1CN(C(C)(C)C)CCC(OC2C(O)CC(OC3C(O)CC(OC4CCC5(C)C(CCC6C5CC(O)C5(C)C(C7=CC(=O)OC7)CCC65O)C4)OC3C)OC2C)O1` (stereo not drawn) [DtB], the Ki in assay [2] worked out at 135 ± 12.1 nM; in [5], 0.0163 ± 0.00028 µM; in assay [6], 0.0184 ± 0.0011 µM; in assay [7], 21.6 ± 5.6 nM. The “Selectivity α1β1/α2β3” value in [3] is recorded as 8.2. Moreover, the “Selectivity α1β1/α2/β2” value in assay [4] was determined as 7.3. Further, the “Selectivity α1β1/α2/β1” value in assay [8] turned out to be 6.2.

As for `CC1CN(CC(F)(F)F)CCC(OC2C(O)CC(OC3C(O)CC(OC4CCC5(C)C(CCC6C5CC(O)C5(C)C(C7=CC(=O)OC7)CCC65O)C4)OC3C)OC2C)O1` (stereo not drawn) [DMeCF3], the Ki in assay [2] was found to be 119 ± 15 nM; in assay [5], 0.0124 ± 0.0015 µM; in assay [6], 0.0181 ± 0.0019 µM; in assay [7], 28.6 ± 0.9 nM; in assay [9] it was 0.044 ± 0.007 µM; in [10] it was 0.199 ± 0.033 µM. The “Selectivity α1β1/α2β3” value in assay [3] is recorded as 9.6. For the same compound, the “Selectivity α1β1/α2/β2” value in [4] amounted to 6.5. For the same compound, the “Selectivity ratio Ki α1/α2 ± S.E.” value in [8] worked out at 4.50 ± 1.0. Further, the “Selectivity α1β1/α2/β1” value in assay [8] amounted to 4.1.

Take `CCCN1CCC(OC2C(O)CC(OC3C(O)CC(OC4CCC5(C)C(CCC6C5CC(O)C5(C)C(C7=CC(=O)OC7)CCC65O)C4)OC3C)OC2C)OC(C)C1` (stereo not drawn) [DP]: the Ki in assay [2] amounted to 87.7 ± 7.9 nM; in assay [5] it was 0.0098 ± 0.0011 µM; in [6], 0.0105 ± 0.0018 µM; in assay [7] it was 18.3 ± 1.68 nM. For the same compound, the “Selectivity α1β1/α2β3” value in assay [3] was 8.8. Moreover, in [4], the “Selectivity α1β1/α2/β2” value was 8.3. Moreover, in assay [8], the “Selectivity α1β1/α2/β1” value came to 4.8.

Consider `CC1CN(C(C)C)CCC(OC2C(O)CC(OC3C(O)CC(OC4CCC5(C)C(CCC6C5CC(O)C5(C)C(C7=CC(=O)OC7)CCC65O)C4)OC3C)OC2C)O1` (stereo not drawn) [DIP], for which the Ki in assay [2] worked out at 149 ± 20.7 nM; in assay [5], 0.0103 ± 0.0018 µM; in assay [6], 0.0167 ± 0.0019 µM; in assay [7], 28.9 ± 1.7 nM. Also, in assay [3], the “Selectivity α1β1/α2β3” value is 14.4. For the same compound, the “Selectivity α1β1/α2/β2” value in [4] stood at 8.9. Moreover, the “Selectivity α1β1/α2/β1” value in assay [8] came to 5.1.

Regarding `CC1CN(C[Si](C)(C)C)CCC(OC2C(O)CC(OC3C(O)CC(OC4CCC5(C)C(CCC6C5CC(O)C5(C)C(C7=CC(=O)OC7)CCC65O)C4)OC3C)OC2C)O1` (stereo not drawn) [DTMS], the Ki in [2] came to 108 nM; in assay [5], 0.0078 µM; in [6] it was 0.015 µM; in assay [7], 31.5 nM. Further, the “Selectivity α1β1/α2β3” value in [3] came to 13.8. Moreover, in assay [4], the “Selectivity α1β1/α2/β2” value was determined as 7.2. Also, the “Selectivity α1β1/α2/β1” value in assay [8] is recorded as 3.4.

For the compound `CC(C)CN1CCC(OC2C(O)CC(OC3C(O)CC(OC4CCC5(C)C(CCC6C5CC(O)C5(C)C(C7=CC(=O)OC7)CCC65O)C4)OC3C)OC2C)OC(C)C1` (stereo not drawn) [DIB], in assay [11], the “Concentration required to fully prevent the rise in IOP” value is more than 30 µM. Besides, the Ki was 92 ± 8.9 nM in assay [2], 0.0058 µM in assay [5], 0.01 ± 0.0008 µM in assay [6] and 20.6 ± 1.4 nM in assay [7].

The values are drawn from US9938316B2, “Selective inhibitors of α2 isoform of Na,K-ATPase and use thereof for reduction of intra-ocular pressure and as cardiotonic agents” (priority 2013, dated 2018).
